Experimental data as given in patent US20040044037A1, “Amidino-urea serotonin receptor ligands and compositions, their pharmaceutical uses, and methods for their snythesis” (priority 2003, published 2004).

Legend:
human 5-HT1a receptors = molecular target: T1, human 5-HT1a receptors (Homo sapiens, UniProt P08908); assay: Competition radioligand binding, h5-HT1a; conditions: [3H]5-CT; membranes of CHO K1 cells; read-out: Ki 5-HT1A
T1 construct: expressed in transfected cells; host or cells: CHO K1 cells
T1 sequence (P08908 1-422): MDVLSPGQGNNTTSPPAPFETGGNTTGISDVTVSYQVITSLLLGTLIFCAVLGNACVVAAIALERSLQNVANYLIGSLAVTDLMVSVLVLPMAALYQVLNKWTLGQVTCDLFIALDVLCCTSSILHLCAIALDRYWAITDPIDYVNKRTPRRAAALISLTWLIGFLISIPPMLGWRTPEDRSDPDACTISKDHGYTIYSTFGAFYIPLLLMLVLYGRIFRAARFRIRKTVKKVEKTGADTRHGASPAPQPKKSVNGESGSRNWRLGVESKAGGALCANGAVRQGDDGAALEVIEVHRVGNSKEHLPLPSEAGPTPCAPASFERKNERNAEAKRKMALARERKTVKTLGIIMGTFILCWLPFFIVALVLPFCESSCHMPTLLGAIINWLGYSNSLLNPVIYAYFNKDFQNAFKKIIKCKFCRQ
Method: (§1) Cells and Membrane Preparation: HEK 293 cells stably expressing human 5-HT7B (h5-HT7b) receptors were grown in Dulbecco's Modified Eagle's Medium (DMEM; Gibco) without sodium pyruvate and containing 4.5 g/L glucose, L-glutamine/penicillin-streptomycin (Gemini), 10% fetal bovine serum and 250 mg/l of the antibiotic, G418 (Geneticin) as previously described (Jasper, J. R., Kosaka, A., To, Z. P., Chang, D. J. and Eglen, R. M. (1997) Cloning, expression and pharmacology of a truncated splice variant of the human 5-ht7 receptor (h5-ht7b). Br. J. Pharmacol. 122(1):126-132.). Cell pellets were homogenized in approximately 50 mL of homogenization buffer (buffer A) containing: 50 mM Tris (pH 7.4), 2 mM EGTA, 0.32 M sucrose, 10 μM PMSF, 1 μg/mL leupeptin, 5 μg/mL Pepstatin A, and 5 μg/mL aprotinin using an UltraTurax homogenizer (Tekmar Company, Cincinnati, Ohio) at 80% maximum setting three times for 10 sec. Cell pellets were centrifuged at 4° C. at 1,500×g for 10 min in a Beckman GS-6R centrifuge. Pellets were resuspended in buffer A, homogenized and centrifuged as described above. Pooled supernatants were transferred to centrifuge bottles and centrifuged at 4° C. at 20,000×g for 30 min in a Beckman J2-HS centrifuge. Cell pellets were resuspended in buffer A and were centrifuged at 4° C. at 20,000×g for 30 min. Cell pellets were resuspended in buffer A and stored at −70° C. in aliquots of 2.5 mg/mL total membrane protein. Total membrane protein was assessed utilizing a BCA kit (Pierce; Rockford, Ill.). Membranes containing human 5-HT1a or 5HT2a receptors expressed in CHO K1 cells were prepared as described above.
(§2) Radioligand Binding Assays: For 5-HT7 saturation binding experiments, HEK-293 cell membranes expressing h5-HT7 receptors (5-10 μg membrane protein/well) were incubated in duplicate with [^3H]5-CT (approximately 0.2 nM) in binding assay buffer containing: 50 mM HEPES (pH 7.4), 0.5 mM EDTA, 10 mM MgCl2, 10 μM pargyline to inhibit monoamine oxidase activity, and 0.1% sodium ascorbate, in a final volume of 200 μL in 96-well polypropylene plates for 2 hours at 37° C. Nonspecific binding was determined by incubating membranes with 1 μM 5-HT. All radioligand binding assays were stopped by rapid filtration onto 96-well GF/C filter plates (Packard) soaked in 0.1% polyethylenimine. Filters were washed three times with ice-cold phosphate-buffered saline (PBS) wash buffer containing 50 mM NaPO4 (pH 7.4), 0.9% NaCl, 2 mM MgCl2 and 0.02% NaN3. The filters were then counted using liquid scintillation in a Packard Topcount scintillation counter.
(§3) Data Analysis: Radioligand binding experiments were analyzed with Prism™ (Graphpad, San Diego, Calif.), a computer graphics and statistics program. IC50 values and Hill slopes for compounds were generated by nonlinear regression using Prism™. Values for Ki calculated from IC50 values by the Cheng and Prussoff equation (Cheng, Y. and Prusoff, W. H., (1973), “Relationship between the inhibition constant (Ki) and the concentration of inhibitor which causes 50 per cent inhibition (I50) of an enzymatic reaction.” Biochemical Pharmacol. 22:3099-3108).

human 5HT2a receptors = molecular target: T2, human 5HT2a receptors (Homo sapiens, UniProt P28223); assay: Competition radioligand binding, 5-HT2A; conditions: [3H]Ketanserin; membranes of CHO K1 cells; read-out: Ki 5-HT2A
T2 construct: expressed in transfected cells; host or cells: CHO K1 cells
Method: as §1, §2, §3

[1] = molecular target: T3, human 5-HT6 (h5-HT6) receptors (Homo sapiens, UniProt P50406); assay: Competition radioligand binding, h5-HT6; conditions: [3H]LSD; membranes of HEK-293 cells; read-out: Ki 5-HT6
T3 construct: purchased Receptor Biology, Inc. (Beltsville, Md.); host or cells: HEK-293 cells

[2] = molecular target: T4, human 5-HT7B (h5-HT7b) receptors (Homo sapiens, UniProt P34969); assay: Competition radioligand binding, h5-HT7b; conditions: [3H]5-CT; membranes of HEK 293 cells; read-out: Ki 5-HT7
T4 construct: expressed in transfected cells
Summary of the method: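 Membranes from HEK 293 cells stably expressing human 5-HT7b incubated with ~0.2 nM [3H]5-CT and varying compound 2 h at 37 °C in HEPES buffer pH 7.4 with pargyline. Nonspecific binding with 1 μM 5-HT; filtration, scintillation counting; IC50 by nonlinear regression converted to Ki via Cheng–Prusoff.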

[3] = molecular target: T5, human D2S dopamine (hD2S-DA) receptors (Homo sapiens, UniProt P14416); assay: Competition radioligand binding, hD2S dopamine; conditions: [3H]Spiperone; membranes of A9 L cells; read-out: Ki D2
T5 construct: purchased Receptor Biology, Inc. (Beltsville, Md.); host or cells: A9 L cells
T5 sequence (P14416 1-414 isoform P14416-2): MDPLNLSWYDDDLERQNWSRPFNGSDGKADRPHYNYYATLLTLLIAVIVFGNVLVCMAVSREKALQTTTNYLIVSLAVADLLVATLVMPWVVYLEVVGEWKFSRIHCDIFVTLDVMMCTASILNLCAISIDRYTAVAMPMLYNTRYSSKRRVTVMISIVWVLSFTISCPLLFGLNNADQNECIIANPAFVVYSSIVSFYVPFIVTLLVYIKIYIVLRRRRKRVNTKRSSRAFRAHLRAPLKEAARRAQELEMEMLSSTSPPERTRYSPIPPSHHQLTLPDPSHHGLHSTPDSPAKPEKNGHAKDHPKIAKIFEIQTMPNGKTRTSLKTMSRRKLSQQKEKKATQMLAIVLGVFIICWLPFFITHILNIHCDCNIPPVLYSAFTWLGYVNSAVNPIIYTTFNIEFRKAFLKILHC

T2 sequence (P28223 whole entry): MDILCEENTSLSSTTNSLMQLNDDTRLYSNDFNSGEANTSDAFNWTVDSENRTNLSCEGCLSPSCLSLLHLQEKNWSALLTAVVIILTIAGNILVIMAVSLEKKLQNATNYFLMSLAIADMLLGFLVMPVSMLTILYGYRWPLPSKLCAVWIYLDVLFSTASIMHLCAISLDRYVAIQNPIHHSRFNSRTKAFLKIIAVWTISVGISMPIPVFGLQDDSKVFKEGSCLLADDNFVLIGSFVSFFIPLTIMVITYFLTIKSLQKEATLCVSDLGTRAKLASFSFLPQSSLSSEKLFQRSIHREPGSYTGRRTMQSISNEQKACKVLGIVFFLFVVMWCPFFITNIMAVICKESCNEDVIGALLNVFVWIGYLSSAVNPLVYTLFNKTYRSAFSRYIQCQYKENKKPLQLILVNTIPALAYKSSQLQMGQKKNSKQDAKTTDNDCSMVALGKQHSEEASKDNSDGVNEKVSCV
T4 sequence (P34969 1-432 limits assumed): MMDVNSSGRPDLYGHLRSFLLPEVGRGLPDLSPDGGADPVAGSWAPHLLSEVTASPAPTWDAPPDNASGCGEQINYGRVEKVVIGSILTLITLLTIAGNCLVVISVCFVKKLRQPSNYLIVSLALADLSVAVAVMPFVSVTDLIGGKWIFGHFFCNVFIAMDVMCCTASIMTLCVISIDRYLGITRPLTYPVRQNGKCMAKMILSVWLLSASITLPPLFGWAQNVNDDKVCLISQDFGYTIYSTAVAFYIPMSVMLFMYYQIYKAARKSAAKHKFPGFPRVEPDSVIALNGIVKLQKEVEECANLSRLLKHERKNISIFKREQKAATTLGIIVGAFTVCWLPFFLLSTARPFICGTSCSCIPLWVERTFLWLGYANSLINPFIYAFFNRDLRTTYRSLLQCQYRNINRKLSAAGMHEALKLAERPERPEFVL
T3 sequence (P50406 whole entry): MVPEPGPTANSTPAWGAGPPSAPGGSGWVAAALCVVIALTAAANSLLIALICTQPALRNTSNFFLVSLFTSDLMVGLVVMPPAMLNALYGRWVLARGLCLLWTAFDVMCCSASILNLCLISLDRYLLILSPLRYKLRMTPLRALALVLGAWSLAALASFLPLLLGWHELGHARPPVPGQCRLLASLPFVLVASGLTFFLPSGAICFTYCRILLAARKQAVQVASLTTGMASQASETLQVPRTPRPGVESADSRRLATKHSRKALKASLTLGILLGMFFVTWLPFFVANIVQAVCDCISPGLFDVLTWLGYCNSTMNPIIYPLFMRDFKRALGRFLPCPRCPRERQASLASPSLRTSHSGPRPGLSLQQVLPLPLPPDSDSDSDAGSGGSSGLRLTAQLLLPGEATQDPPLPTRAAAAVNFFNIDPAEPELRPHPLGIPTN

Structure (SMILES)	Ki (human 5-HT1a receptors) [nM]	Ki (human 5HT2a receptors) [nM]	Ki [1] [nM]	Ki [2] [nM]	Ki [3] [nM]
N=C(NCc1cccc2ccccc12)NC(=O)NC[C@@H]1CCCC[C@H]1O [Example 46, 1-({[{[({[(1S,2R)-2-Hydroxycyclohexyl]methyl}amino)carbonyl]amino}(imino)methyl]amino}methyl)naphthalene]	49	0.6	500	9.8	410
N=C(NCc1cccc2ccccc12)NC(=O)NCC1(O)CCCCC1 [Example 50, 1-({[[({[(1-Hydroxycyclohexyl)methyl]amino}carbonyl)amino](imino)methyl]amino}methyl)naphthalene]	47	0.25	620	26	1070
CCOC(=O)N1CCN(C(=O)NC(=N)NCc2cccc3ccccc23)CC1 [Example 51, Ethyl 4-[({imino[(1-naphthylmethyl)amino]methyl}amino)carbonyl]-1-piperazine carboxylate]	> 4000	18	> 10000	15	> 2500
CN(C)C(=O)NC(=N)NCc1cccc2ccccc12 [Example 56, 1-({[{[(Dimethylamino)carbonyl]amino}(imino)methyl]amino}methyl)naphthalene]	700	17	> 10000	94	> 2500
N=C(NCc1cccc2ccccc12)NC(=O)NCC1CCN(Cc2ccc([N+](=O)[O-])cc2)CC1 [Example 60, 4-({[({Imino[(1-naphthylmethyl)amino]methyl}amino)carbonyl]amino}methyl)-1-(4-nitrobenzyl)piperidine]	68	16	3470	51	1870
N=C(NCc1cccc2ccccc12)NC(=O)NCC1CCN(Cc2ccc3c(c2)OCO3)CC1 [Example 66, 1-(1,3-Benzodioxol-5-ylmethyl)-4-({[({imino[(1-naphthylmethyl)amino]methyl}amino)carbonyl]amino}methyl)piperidine]	430	4.2	3700	31	1580
N=C(NCc1cccc2ccccc12)NC(=O)NCC1CCN(Cc2ccc(F)cc2F)CC1 [Example 67]	500	6.4	2860	32	> 2500
CC(=O)Nc1ccc(CN2CCC(CNC(=O)NC(=N)NCc3cccc4ccccc34)CC2)cc1 [Example 70, N-(4-{[4-({[({Imino[(1-naphthylmethyl)amino]methyl}amino)carbonyl]amino}methyl)-1-piperidinyl]methyl}phenyl)acetamide]	110	0.55	2430	16	2450
COc1ccc(CN2CCC(CNC(=O)NC(=N)NCc3cccc4ccccc34)CC2)cc1 [Example 71, 4-({[({Imino[(1-naphthylmethyl)amino]methyl}amino)carbonyl]amino}methyl)-1-(4-methoxybenzyl)piperidine]	600	1.3	1370	19	1470

The remaining lines, values ahead:

Ki (human 5-HT1a receptors) [nM]	Ki (human 5HT2a receptors) [nM]	Ki [1] [nM]	Ki [2] [nM]	Ki [3] [nM]	Structure (SMILES)
170	0.8	1870	62	290	COc1cccc(CCNC(=O)NC(=N)NCc2cccc3ccccc23)c1OC [Example 53, 1-({[({[(2,3-Dimethoxyphenethyl)amino]carbonyl}amino)(imino)methyl]amino}methyl)naphthalene]
2450	9.6	2450	13	> 2500	CNC(=O)NC(=N)NCc1cccc2ccccc12 [Example 54, 1-{[(1-Imino{[(methylamino)carbonyl]amino}methyl)amino]methyl}naphthalene]
1720	1.5	2320	10	> 2500	C[C@@H](O)CNC(=O)NC(=N)NCc1cccc2ccccc12 [Example 55, 1-({[[({[(2R)-2-Hydroxypropyl]amino}carbonyl)amino](imino)methyl]amino}methyl)naphthalene]
420	8.1	1370	23	1570	COc1cccc(CN2CCC(CNC(=O)NC(=N)NCc3cccc4ccccc34)CC2)c1 [Example 58, 4-({[({Imino[(1-naphthylmethyl)amino]methyl}amino)carbonyl]amino}methyl)-1-(3-methoxybenzyl)piperidine]
340	1.8	3030	39	1780	COc1ccc(C(C)=O)cc1CN1CCC(CNC(=O)NC(=N)NCc2cccc3ccccc23)CC1 [Example 63, 1-(5-Acetyl-2-methoxybenzyl)4({[({imino[(1-naphthylmethyl)amino]methyl}amino)carbonyl]amino}methyl)piperidine]
690	9.5	4180	29	2490	Cc1ccccc1CN1CCC(CNC(=O)NC(=N)NCc2cccc3ccccc23)CC1 [Example 65, 4-({[({Imino[(1-naphthylmethyl)amino]methyl}amino)carbonyl]amino}methyl)-1-(2-methylbenzyl)piperidine]
1680	10	910	18	1540	COc1ccc(CN2CCC(CNC(=O)NC(=N)NCc3cccc4ccccc34)CC2)cc1C [Example 68, 4-({[({Imino[(1-naphthylmethyl)amino]methyl}amino)carbonyl]amino}methyl)-1-(4-methoxy-3-methylbenzyl)piperidine]
420	5.3	880	15	880	Cc1cccc(CN2CCC(CNC(=O)NC(=N)NCc3cccc4ccccc34)CC2)c1 [Example 72, 4-({[({Imino[(1-naphthylmethyl)amino]methyl}amino)carbonyl]amino}methyl)-1-(3-methylbenzyl)piperidine]
